In patent publication US8563565B2, “Pyrazoloquinoline derivatives” (Eisai R&D Management Co., Ltd., priority 2011, dated 2013):
Read-outs that look alike come from different tables or passages of the source.

Assays:
[1] = tested on: cGMP in the cerebrospinal fluid; assay: Effect on rodent cerebrospinal fluid cGMP (rat); type: in vivo; conditions: po, read-out: % CSF cGMP increase from vehicle control
Description: 3) Effect on Rodent Cerebrospinal Fluid cGMP
The test compound was administered to ICR male mice (Charles River Laboratories Japan, Inc.), Sprague-Dawley male rats (SD) (Charles River Laboratories Japan, Inc.) or Long-Evans male rats (LE) (Institute for Animal Reproduction), and the cerebrospinal fluid was then collected under pentobarbital anesthesia and stored at −20° C. cGMP in the cerebrospinal fluid was measured in accordance with the acetylation EIA procedure of cGMP EIA kit (GE Healthcare) or the non-acetylation procedure of cGMP EIA kit (Cayman) The result was an increase (C) in the amount of cGMP of the test compound-administered group (B) relative to the amount of cGMP of the vehicle-administered group (A), and was calculated using the following formula cGMP increase(C)=[(B)−(A)]/(A)×100(%)

[2] = tested on: cGMP in the hippocampus; assay: Effect on rodent hippocampal cGMP; type: in vivo, rat; conditions: Rattus norvegicus, po, read-out: % hippocampal cGMP increase from vehicle control
Description: 4) Effect on Rodent Hippocampal cGMP
The test compound was administered to Sprague-Dawley male rats (Charles River Laboratories Japan, Inc.) or Long-Evans male rats (Institute for Animal Reproduction) and then the animals were sacrificed with microwave under pentobarbital anesthesia, and the hippocampus was extracted. After measuring the wet weight, the hippocampus was frozen with liquid nitrogen and stored at −80° C. In the measurement of cGMP in the hippocampus, a 0.5 M perchloric acid/1 mM EDTA solution was added at 5% (w/v) based on the wet weight, and the mixture was homogenized. After the homogenization, the homogenate was centrifuged (10000 rpm, 15 min), and the supernatant was collected. The collected supernatant was neutralized with a 2 M potassium bicarbonate solution and centrifuged (13000 rpm, 10 min). The cGMP concentration in the supernatant was measured in accordance with the non-acetylation EIA procedure of cGMP EIA kit (GE Healthcare). The result was an increase (C) in the amount of cGMP of the test compound-administered group (B) relative to the amount of cGMP of the vehicle-administered group (A), and was calculated using the following formula. cGMP increase(C)=[(B)−(A)]/(A)×100(%)

[3] = molecular target: T1, human recombinant PDE9 protein (Homo sapiens, UniProt O76083); assay: PDE9 inhibitory activity test (measurement of PDE9 inhibitory action, [3H]-cGMP); type: biochemical; conditions: PDE9 IC50, human recombinant PDE9, 30° C., 10 min
T1 construct: His-tag (inferred from the Ni column purification; a myc His-tag vector is named only for the HEK293 expression check); made in house; host or cells: silkworm (pYNG vector, Katakura Industries)
T1 sequence (O76083 whole entry): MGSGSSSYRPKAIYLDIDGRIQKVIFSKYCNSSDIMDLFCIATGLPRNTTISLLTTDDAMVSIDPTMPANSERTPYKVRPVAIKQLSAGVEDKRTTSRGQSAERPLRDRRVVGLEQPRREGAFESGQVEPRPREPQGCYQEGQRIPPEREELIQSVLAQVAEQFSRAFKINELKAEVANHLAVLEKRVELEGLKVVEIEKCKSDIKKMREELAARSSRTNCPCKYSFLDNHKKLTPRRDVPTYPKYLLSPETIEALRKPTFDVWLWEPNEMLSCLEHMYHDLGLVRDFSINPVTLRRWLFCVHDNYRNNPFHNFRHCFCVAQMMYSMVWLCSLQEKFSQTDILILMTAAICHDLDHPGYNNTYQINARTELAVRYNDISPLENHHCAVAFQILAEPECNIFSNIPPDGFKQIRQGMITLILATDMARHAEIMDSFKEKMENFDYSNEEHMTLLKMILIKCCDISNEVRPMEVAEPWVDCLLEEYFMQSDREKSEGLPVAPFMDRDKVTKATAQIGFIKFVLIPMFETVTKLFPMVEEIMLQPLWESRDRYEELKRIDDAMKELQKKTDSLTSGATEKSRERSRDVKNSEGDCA
Description: 1) Preparation of a Human Recombinant PDE9 Protein
An hsPDE9A 1cDNA fragment was amplified by being based on a base sequence (Accession No.: AF048837) of the hsPDE9A1 registered on GenBank data base, and by using the following sequences (Hokkaido System Science Co., Ltd.) as a primer and Human hippocampus cDNA library (Clontech Laboratories, Inc.) as a template DNA, and using Pfu50 DNA polymerase (Invitrogen Corp.), and by a polymerase chain reaction (PCR) of the following condition.
The condition of PCR: [96° C., 5 min]×1 cycle, [(96° C., 10 sec), (57° C., 5 sec), (72° C., 2 min)]×30 cycles
The obtained hsPDE9A 1 cDNA fragment was incorporated in a TOPO-TA cloning vector (Invitrogen Corp.), and the base sequence was checked; and thereafter, the resultant was transfected in a pcDNA 3.1/myc His-tag vector (Invitrogen Corp.) to thereby make a human PDE9 expression vector for mammal cells. The human PDE9 expression vector for mammal cells was transfected with transient expression to an HEK293 cell by using a LIPOFETAMINE 2000 Reagent (Gibco). It was confirmed by Western blot method that the PDE9A expressed in the HEK293 cell, and then, the human PDE9A 1cDNA fragment was transfected in a pYNG vector (Katakura Industries Co., Ltd.) to thereby make an expression vector for insect cells. A supernatant of homogenized silk worm in which a large amount of PDE9 was expressed was purified by an equilibrated Ni column using a buffer A (20 mmol/L Tris-HCl, pH: 8.0, 1 mmol/L DTT, 10 mmol/L imidazole). After 1 hour of mixing of the supernatant and the Ni column, cleaning was carried out using a buffer B (20 mmol/L Tris-HCl, pH: 8.0, 1 mmol/L […]), and elution was carried out using a buffer C (20 mmol/L Tris-HCl, pH: 8.0, 1 mmol/L DTT, 100 mmol/L imidazole). An elution fraction was preparatively collected to thereby obtain a PDE9 enzyme solution.
2) Measurement of PDE9 Inhibitory Action
To 100 μL of a buffer D (40 mmol/L Tris-HCl, pH: 7.4, 10 mmol/L MgCl2, 1 mM DTT, 2 μM cGMP) solution containing [^3H]-cGMP ([…]/mL), 10 μL of a compound solution for evaluation (a solution in which a compound was dissolved in DMSO and diluted so that the DMSO concentration became 5%) and 90 μL of a solution prepared by diluting the PDE9 enzyme solution prepared in the above with a buffer E (40 mmol/L Tris-HCl, pH: 7.4, 10 mmol/L MgCl2, 1 mM DTT, 1 mmol/L EGTA) were added under ice cooling. The resultant mixed solution was incubated at 30° C. for 10 min, and thereafter heated for 2 min in boiled water to stop the enzyme reaction of the PDE9. Then, the resultant was returned to room temperature; 50 μL of 5′-Nucleotidase (Biomol GmbH, 10 units/mL) was added thereto; and the resultant was incubated at 30° C. for 10 min to thereby convert [^3H]-5′-GMP formed in the previous reaction to [^3H]-guanosine. 500 μL of an anion exchange resin (Bio-Rad AG1-X2 resin, mesh size: 200-400, H2O:resin=2:1) was added to the resultant reaction liquid, and allowed to stand for 10 min, and thereafter centrifuged (2,000 rpm, 10 min); and a supernatant in which the [^3H]-guanosine was present was transferred to a LumaPlate (PerkinElmer, Inc.), and the radioactivity was measured by a TopCount NXT microplate scintillation and luminescence counter (PerkinElmer, Inc.).
The inhibition percentage of the evaluation compound was calculated using the following expression, taking the radioactivity of a control containing no evaluation compound to be (A), the radioactivity of a blank containing no enzyme to be (B), and the radioactivity of the evaluation compound to be (C). Inhibition percentage=100−{[(C)−(B)]/[(A)−(B)]}×100(%)
The IC50 value for PDE9 of the evaluation compound was determined from inhibition percentage for various concentrations.

SMILES	IC50 [3]	further results
COc1ncc(C)c(-c2ccc3c(c2)[nH]c(=O)c2cnn([C@H]4CCOC4)c23)c1C [26 S]	–	change in vivo at 10 mg/kg ([1]; Rattus norvegicus, 1 h): 274%; change in vivo at 10 mg/kg ([2]; 1 h): 58%
Cc1cc(OC(F)F)nc(C)c1-c1ccc2c(c1)[nH]c(=O)c1cnn(C3CCOCC3)c12 [Example 18]	9.3 nM	change in vivo at 3 mg/kg ([1]; Rattus norvegicus, 1 h): 123%
COc1cc(C)c(-c2ccc3c(c2)[nH]c(=O)c2cnn(C4CCOCC4)c23)c(CF)n1 [Example 24]	18.7 nM	change in vivo at 10 mg/kg ([1]; Rattus norvegicus, 1 h): 149%
COc1nc(CF)cc(C)c1-c1ccc2c(c1)[nH]c(=O)c1cnn(C3CCOCC3)c12 [Example 17]	6.08 nM	–
COc1cc(CF)c(-c2ccc3c(c2)[nH]c(=O)c2cnn(C4CCOCC4)c23)c(C)n1 [Example 22]	52.3 nM	–
Cc1cc(C)c(-c2ccc3c(c2)[nH]c(=O)c2cnn(C4CCOCC4)c23)c(C(F)F)n1 [Example 21]	53.9 nM	–
Cc1cc(C)c(-c2ccc3c(c2)[nH]c(=O)c2cnn(C4CCOCC4)c23)c(CF)n1 [Example 20]	28.9 nM	–
COCc1cc(C)c(-c2ccc3c(c2)[nH]c(=O)c2cnn(C4CCOCC4)c23)c(C)c1 [Example 7]	9.2 nM	–
Cc1cc(C2CCOCC2)cc(C)c1-c1ccc2c(c1)[nH]c(=O)c1cnn(C3CCOCC3)c12 [Example 40, 7-[2,6-dimethyl-4-(tetrahydro-2H-pyran-4-yl)phenyl]-1-(tetrahydro-2H-pyran-4-yl)-1H-pyrazolo[4,3-c]quinolin-4(5H)-one]	3.21 nM	–
COc1nc(C)cc(C)c1-c1ccc2c(c1)[nH]c(=O)c1cnn([C@@H]3COC[C@H]3OC)c12 (racemic) [Example 60, 7-(2-methoxy-4,6-dimethylpyridin-3-yl)-1-[(3RS,4SR)-4-methoxytetrahydrofuran-3-yl]-1H-pyrazolo[4,3-c]quinolin-4(5H)-one]	31.1 nM	–
Cc1cc(F)nc(C)c1-c1ccc2c(c1)[nH]c(=O)c1cnn(C3CCOCC3)c12 [Example 8]	25.2 nM	–

Second part, led by results:

IC50 [3]	SMILES	further results
6.86 nM	COc1nccc(C)c1-c1ccc2c(c1)[nH]c(=O)c1cnn(C3CCOCC3)c12 [Example 6, 7-(2-methoxy-4-methylpyridin-3-yl)-1-(tetrahydro-2H-pyran-4-yl)-1H-pyrazolo[4,3-c]quinolin-4(5H)-one]	change in vivo at 10 mg/kg ([1]; Rattus norvegicus, 1 h): 120%
14 nM	COc1cc(C)c(-c2ccc3c(c2)[nH]c(=O)c2cnn(C4CCOCC4)c23)c(C)n1 [Example 3, 7-(6-methoxy-2,4-dimethylpyridin-3-yl)-1-(tetrahydro-2H-pyran-4-yl)-1H-pyrazolo[4,3-c]quinolin-4(5H)-one]	change in vivo at 10 mg/kg ([1]; Rattus norvegicus, 2 h): 186%; change in vivo at 10 mg/kg ([2]; 4 h): 32%
8.36 nM	COc1nc(C)cc(C)c1-c1ccc2c(c1)[nH]c(=O)c1cnn(C3CCOC3)c12 (single isomer, unassigned; (-)) [28 (−), (−)-7-(2-methoxy-4,6-dimethylpyridin-3-yl)-1-(tetrahydrofuran-3-yl)-1H-pyrazolo[4,3-c]quinolin-4(5H)-one]	change in vivo at 3 mg/kg ([1]; Rattus norvegicus, 1 h): 257%
19.7 nM	COc1ncc(F)c(C)c1-c1ccc2c(c1)[nH]c(=O)c1cnn(C3CCOCC3)c12 [Example 12]	change in vivo at 3 mg/kg ([1]; Rattus norvegicus, 1 h): 91%
12.2 nM	COc1nccc(C)c1-c1ccc2c(c1)[nH]c(=O)c1cnn(C3CCOC3)c12 (single isomer, unassigned) [32 (−)]	change in vivo at 10 mg/kg ([1]; rat(SD), 10 mg/kg p.o., sampling time 1 hr): 72%
11.1 nM	CCOc1cc(C)c(-c2ccc3c(c2)[nH]c(=O)c2cnn([C@H]4CCOC4)c23)c(C)n1 [Example 62, (S)-7-(6-ethoxy-2,4-dimethylpyridin-3-yl)-1-(tetrahydrofuran-3-yl)-1H-pyrazolo[4,3-c]quinolin-4(5H)-one]	change in vivo at 3 mg/kg ([1]; Rattus norvegicus, 1 h): 155%
43.9 nM	COc1ncc(C)c(-c2cc3[nH]c(=O)c4cnn([C@@H]5CCOC5)c4c3cc2F)c1C [Example 57, (R)-8-fluoro-7-(2-methoxy-3,5-dimethylpyridin-4-yl)-1-(tetrahydrofuran-3-yl)-1H-pyrazolo[4,3-c]quinolin-4(5H)-one]	–
41 nM	COc1ncc(C)c(-c2ccc3c(c2)[nH]c(=O)c2cnn([C@@H]4CCOC4)c23)c1C [25 (+)R]	–
18.1 nM	COc1cc(C)c(-c2ccc3c(c2)[nH]c(=O)c2cnn(C4COCCOC4)c23)c(C)n1 [Example 46]	–
12.1 nM	COc1cc(C)c(-c2ccc3c(c2)[nH]c(=O)c2cnn(C4COCCOC4)c23)c(C)c1 [Example 44]	–
225 nM	COc1cc(C)c(-c2ccc3c(c2)[nH]c(=O)c2cnn(C4CCOC4)c23)c(CF)n1 (stereo not drawn) [30 (+)]	–
113 nM	Cc1cccc(C)c1-c1ccc2c(c1)[nH]c(=O)c1cnn(C3CCOC3)c12 (single isomer, unassigned; (+)) [33 (+), (+)-7-(2,6-dimethylphenyl)-1-(tetrahydrofuran-3-yl)-1H-pyrazolo[4,3-c]quinolin-4(5H)-one]	–
17.1 nM	COc1cc(C)c(-c2ccc3c(c2)[nH]c(=O)c2cnn(C4CCCOC4)c23)c(CF)n1 (single isomer, unassigned) [38 (+)]	–
2.96 nM	COc1nc(CF)cc(C)c1-c1ccc2c(c1)[nH]c(=O)c1cnn(C3CCCOC3)c12 (single isomer, unassigned) [35 (−)]	–
8.98 nM	COc1ncc(C)c(-c2ccc3c(c2)[nH]c(=O)c2cnn(C4CCCOC4)c23)c1C (single isomer, unassigned) [36 (+)]	–
